For 23 molecules, IC50 results are on record in US20170000749A1, “Methods for Treating Cognitive Disorders Using Inhibitors of Histone Deacetylase” (Forum Pharmaceuticals, Inc., priority 2008, published 2017).

In assay [1] the test system is HDAC activity in primary mouse cortical cultures. In words: Whole-Cell Histone Deacetylase (HDAC) Inhibition Assay in Primary Mouse Cortical Cultures. Conditions: whole-cell (WC), mouse cortical neurons, read-out: HDAC Inhibition (IC50 μM) WC mouse cortical neurons. The assay is classed as cell-based. The procedure:
Primary neocortical cultures are established through the dissection of the neocortex from E17 embryos harvested from time-pregnant Balb/C mice. Following dissection, the neocortical tissue specimens undergo digestion by incubation at 37° C. for 10 minutes in dissection medium (1×HBSS/10 mM HEPES/1 mM Sodium Pyruvate) supplemented with (0.25%) Trypsin and (0.1%) DNase I. Digested tissue is washed and resuspended in plating medium (NeuroBasal/10% HS/0.5 mM L-Glutamine (Invitrogen Corporation)) for trituration. Additional plating medium is added, and the contents are passed over a 70 um cell-strainer. The cell-density is quantified using a hemacytometer, and dilutions are made to allow for the plating of 50000 cells/well/100 uL in 96-well PDL-coated plates. Plates are incubated for 4-5 hours in 37° C./5% CO2-incubator, after which time the entire volume is exchanged to feeding medium (NeuroBasal/2% B-27 Serum-free supplement/0.5 mM L-Glutamine/1% Penicillin-Streptomycin (Invitrogen Corporation)). The cultures undergo two 50% fresh feeding medium exchanges at 3 days in vitro (DIV3), and again at DIV7.
Compounds for testing are resuspended in dimethyl sulphoxide (DMSO), and further diluted in DMSO for a ten-point dose-response curve, with appropriate controls. Each master plate is assayed in triplicate. […] Three DIV9 culture plates are leveled to 50 uL/well, onto which each has overlaid 50 uL/well of the diluted daughter plate. The plates are returned to the 37° C./5% CO2-incubator for 16-18 hours.
The next step of the assay involves the exposure of a HDAC colorimetric substrate, comprising an acetylated lysine side chain, to the compound-treated neuronal cultures. Based on the ability of the compound to inhibit HDAC activity in the neuronal cultures, the substrate is deacetylated by HDACs, and subsequently sensitized. […] Compound-incubated culture plates are again leveled to 50 uL/well and 2 uL/well of 7.5 mM BOC-Lys (Ac)-AMC substrate is added and thoroughly mixed. Plates are returned to the 37° C./5% CO2-incubator for 1 hour.
The final addition to the culture plates entails treatment with a Fluor de Lys™-based developer (BIOMOL Research Laboratories, Inc.) to produce a fluorophore, which is analyzed using a spectrophotometer. The developer solution (1×Fluor de Lys™/1% NP-40/1 uM TSA in HDAC Buffer Solution) is prepared, and 50 uL/well is added to each of the wells of the culture plates. […] The plates are returned to the 37° C./5% CO2-incubator for 10-15 minutes, after which time, they are removed and set in the dark at room temperature for 5-10 minutes.
Primary neocortical cultures were established through the dissection of the neocortex from E17 embryos harvested from time-pregnant Balb/C mice. Following dissection, the neocortical tissue specimens underwent digestion by incubation at 37° C. for 10 minutes in dissection medium (1×HBSS/10 mM HEPES/1 mM Sodium Pyruvate) supplemented with (0.25%) Trypsin and (0.1%) DNase I. Digested tissue was washed and resuspended in plating medium (NeuroBasal/10% HS/0.5 mM L-Glutamine (Invitrogen Corporation)) for trituration. Additional plating medium was added, and the contents passed over a 70 um cell-strainer. The cell-density was quantified using a hemacytometer, and dilutions made to allow for the plating of 50000 cells/well/100 uL in 96-well PDL-coated plates. Plates were incubated for 4-5 hours in 37° C./5% CO2-incubator, after which time the entire volume was exchanged to feeding medium (NeuroBasal/2% B-27 Serum-free supplement/0.5 mM L-Glutamine/l % Penicillin-Streptomycin (Invitrogen Corporation)). The cultures underwent two 50% fresh feeding medium exchanges at 3 days in vitro (DIV3), and again at DIV7.
Compounds for testing were resuspended in dimethyl sulphoxide (DMSO), and further diluted in DMSO for a ten-point dose-response curve, with appropriate controls. Each master plate was assayed in triplicate.

Assay [2] has as its target one or more of HDAC-1, HDAC-2, HDAC-3, HDAC-4, HDAC-5, HDAC-6, HDAC-7, HDAC-8, HDAC-9, HDAC-10 and HDAC-11. In words: Inhibition of Histone Deacetylase Enzymatic Activity (Boc-Lys(Ac)-AMC substrate, Fluor-de-Lys developer). The assay is classed as biochemical. The settings on record: read-out: HDAC Inhibition (IC50 μM) HDAC Enzyme. The method, then: The following protocol is used to assay the compounds of the disclosure.
The mixture is pre-incubated for 5 minutes at room temperature. The reaction is started by bringing the temperature to 37° C. and adding 16 μl substrate. Total reaction volume is 50 μl.
In the Tables 8, 9 and 10, A≦0.05 μM; 0.05 μM<B≦0.1 μM; 0.1 μM<C≦1 μM; and 1 μM<D≦10 μM.

Molecules are shown by their SMILES. Where two headings read alike, the source gives them in different places.

As a reminder, the IC50 is the point on the concentration scale where inhibition reaches its midpoint.

Turning to `O=C(NO)c1ccc(N2C[C@@H]3C[C@H]2CN3c2cccc(C(F)(F)F)c2)cc1F` [2-fluoro-N-hydroxy-4-((1S,4S)-5-(3-(trifluoromethyl)phenyl)-2,5-diazabicyclo[2.2.1]heptan-2-yl)benzamide], the half-maximal inhibitory concentration (IC50) in assay [1] (Table 9) was 5 to 15 µM; in assay [2] (Table 9), 0.1 to 1 µM.

On to `O=C(NO)c1ccc(C2Nc3ccccc3Oc3ccccc32)cc1` (stereo not shown) [4-(10,11-dihydrodibenzo[b,f][1,4]oxazepin-11-yl)-N-hydroxybenzamide], for which the IC50 is 1 to 5 µM in assay [1] (Table 8) and less than 0.05 µM in assay [2] (Table 8).

For the molecule `N#Cc1cccc(N2C[C@@H]3C[C@H]2CN3c2ccc(C(=O)NO)cc2)c1` [4-((1S,4S)-5-(3-cyanophenyl)-2,5-diazabicyclo[2.2.1]heptan-2-yl)-N-hydroxybenzamide], the IC50 lay within 1 to 5 µM in assay [1] (Table 9) and 0.1 to 1 µM in assay [2] (Table 9).

`O=C(NO)c1ccc(CN2C(=O)c3cccnc3N(C3CC3)c3ccccc32)cc1` [4-((11-cyclopropyl-5-oxo-5H-benzo[b]pyrido[2,3-e][1,4]diazepin-6(11H)-yl)methyl)-N-hydroxybenzamide]: the IC50 is 5 to 15 µM in assay [1] (Table 10) and 0.1 to 1 µM in assay [2] (Table 10).

Regarding `O=C(CCCCCN1C(=O)c2ccccc2N(C2CC2)c2ccccc21)NO` [6-(5-cyclopropyl-11-oxo-5H-dibenzo[b,e][1,4]diazepin-10(11H)-yl)-N-hydroxyhexanamide], the figures for the IC50 in assay [1] (Table 10) and in assay [2] (Table 10) were 1 to 5 µM and 0.1 to 1 µM, respectively.

Take `O=C(CCCCCN1c2ccccc2CCc2ccccc21)NO` [6-(10,11-dihydro-5H-dibenzo[b,f]azepin-5-yl)-N-hydroxyhexanamide]: the IC50 in assay [1] (Table 10) is 1 to 5 µM; in assay [2] (Table 10) it was less than 0.05 µM.

For the molecule `O=C(CCCCCN1C(=O)c2cccnc2N(C2CC2)c2ccccc21)NO` [6-(11-cyclopropyl-5-oxo-5H-benzo[b]pyrido[2,3-e][1,4]diazepin-6(11H)-yl)-N-hydroxyhexanamide], the IC50 is 1 to 5 µM in assay [1] (Table 10) and 0.1 to 1 µM in assay [2] (Table 10).

For the molecule `O=C(CCCCCCN1C(=O)c2ccccc2N(C2CC2)c2ccccc21)NO` [7-(5-cyclopropyl-11-oxo-5H-dibenzo[b,e][1,4]diazepin-10(11H)-yl)-N-hydroxyheptanamide], the results for the IC50 in assay [1] (Table 10) and in assay [2] (Table 10) were 1 to 5 µM and 0.1 to 1 µM, respectively.

Consider `O=C(CCCCCCN1C(=O)c2cccnc2N(C2CC2)c2ccccc21)NO` [7-(11-cyclopropyl-5-oxo-5H-benzo[b]pyrido[2,3-e][1,4]diazepin-6(11H)-yl)-N-hydroxyheptanamide], for which the figures for the IC50 in assay [1] (Table 10) and in assay [2] (Table 10) were 1 to 5 µM and 0.05 to 0.1 µM, respectively.

For `O=C(CCCCCCN1Cc2ccccc2Oc2ccccc21)NO` [7-(dibenzo[b,f][1,4]oxazepin-10(11H)-yl)-N-hydroxyheptanamide], the results for the IC50 in assay [1] (Table 10) and in assay [2] (Table 10) were greater than 15 µM and 0.1 to 1 µM, respectively.

On to `O=C(CCCCCCCN1C(=O)c2cccnc2N(C2CC2)c2ccccc21)NO` [8-(11-cyclopropyl-5-oxo-5H-benzo[b]pyrido[2,3-e][1,4]diazepin-6(11H)-yl)-N-hydroxyoctanamide], for which the values for the IC50 in assay [1] (Table 10) and in assay [2] (Table 10) were less than 1 µM and 0.1 to 1 µM, respectively.

Regarding `O=C(CCCCCCC(=O)N1Cc2ccccc2Oc2ccccc21)NO` [8-(dibenzo[b,f][1,4]oxazepin-10(11H)-yl)-N-hydroxy-8-oxooctanamide], the results for the IC50 in assay [1] (Table 10) and in assay [2] (Table 10) were 1 to 5 µM and 0.1 to 1 µM, respectively.

Turning to `O=C(NO)c1cnc(N2C[C@@H]3C[C@H]2CN3C(=O)OCc2ccccc2)nc1` [(1S,4S)-benzyl 5-(5-(hydroxycarbamoyl)pyrimidin-2-yl)-2,5-diazabicyclo[2.2.1]heptane-2-carboxylate], the results for the IC50 in assay [1] (Table 9) and in assay [2] (Table 9) were less than 1 µM and less than 0.05 µM, respectively.

Regarding `O=C(NO)c1cnc(N2C[C@@H]3C[C@H]2CN3C(=O)OC2CCCC2)nc1` [(1S,4S)-cyclopentyl 5-(5-(hydroxycarbamoyl)pyrimidin-2-yl)-2,5-diazabicyclo[2.2.1]heptane-2-carboxylate], the IC50 in assay [1] (Table 9) was less than 1 µM; in assay [2] (Table 9), less than 0.05 µM.

For `O=C(NO)c1cnc(N2C[C@@H]3C[C@H]2CN3C(=O)OCC2CC2)nc1` [(1S,4S)-cyclopropylmethyl 5-(5-(hydroxycarbamoyl)pyrimidin-2-yl)-2,5-diazabicyclo[2.2.1]heptane-2-carboxylate], the IC50 in assay [1] (Table 9) was less than 1 µM; in assay [2] (Table 9), less than 0.05 µM.

As to `CC(C)COC(=O)N1C[C@@H]2C[C@H]1CN2c1ncc(C(=O)NO)cn1` [(1S,4S)-isobutyl 5-(5-(hydroxycarbamoyl)pyrimidin-2-yl)-2,5-diazabicyclo[2.2.1]heptane-2-carboxylate], the IC50 in assay [1] (Table 9) was less than 1 µM; in assay [2] (Table 9), less than 0.05 µM.

With `CC(C)OC(=O)N1C[C@@H]2C[C@H]1CN2c1ncc(C(=O)NO)cn1` [(1S,4S)-isopropyl 5-(5-(hydroxycarbamoyl)pyrimidin-2-yl)-2,5-diazabicyclo[2.2.1]heptane-2-carboxylate], the results for the IC50 in assay [1] (Table 9) and in assay [2] (Table 9) were less than 1 µM and less than 0.05 µM, respectively.

`O=C(NO)c1cnc(N2C[C@@H]3C[C@H]2CN3C(=O)OCc2cccnc2)nc1` [(1S,4S)-pyridin-3-ylmethyl 5-(5-(hydroxycarbamoyl)pyrimidin-2-yl)-2,5-diazabicyclo[2.2.1]heptane-2-carboxylate]: the IC50 was less than 1 µM in assay [1] (Table 9) and less than 0.05 µM in assay [2] (Table 9).

With `CC(C)(C)OC(=O)N1C[C@@H]2C[C@H]1CN2c1ncc(C(=O)NO)cn1` [(1S,4S)-tert-butyl 5-(5-(hydroxycarbamoyl)pyrimidin-2-yl)-2,5-diazabicyclo[2.2.1]heptane-2-carboxylate], the IC50 in assay [1] (Table 9) was less than 1 µM; in assay [2] (Table 9), less than 0.05 µM.

For `O=C(NO)c1cnc(N2C[C@@H]3C[C@H]2CN3C(=O)OC2CCOCC2)nc1` [(1S,4S)-tetrahydro-2H-pyran-4-yl 5-(5-(hydroxycarbamoyl)pyrimidin-2-yl)-2,5-diazabicyclo[2.2.1]heptane-2-carboxylate], the concentration for half-maximal inhibition (IC50) in assay [1] (Table 9) was less than 1 µM; in assay [2] (Table 9), less than 0.05 µM.

Turning to `O=C(NO)c1cnc(N2CCN(C3=Nc4ccccc4Oc4ccc(Cl)cc43)CC2)nc1` [(E)-2-(4-(2-chlorodibenzo[b,f][1,4]oxazepin-11-yl)piperazin-1-yl)-N-hydroxypyrimidine-5-carboxamide], the results for the IC50 in assay [1] (Table 8) and in assay [2] (Table 8) were 5 to 15 µM and less than 0.05 µM, respectively.

Take `O=C(/C=C/c1ccc(CN2C(=O)c3cccnc3N(C3CC3)c3ccccc32)cc1)NO` [(E)-3-(4-((11-cyclopropyl-5-oxo-5H-benzo[b]pyrido[2,3-e][1,4]diazepin-6(11H)-yl)methyl)phenyl)-N-hydroxyacrylamide]: the IC50 was less than 1 µM in assay [1] (Table 10) and less than 0.05 µM in assay [2] (Table 10).

Regarding `O=C(/C=C/c1ccc(CN2c3ccccc3C=Cc3ccccc32)cc1)NO` [(E)-3-(4-(((Z)-5H-dibenzo[b,f]azepin-5-yl)methyl)phenyl)-N-hydroxyacrylamide], the values for the IC50 in assay [1] (Table 10) and in assay [2] (Table 10) were 1 to 5 µM and 0.05 to 0.1 µM, respectively.
